The subject of assay [1] is human non small cell lung carcinoma (NCI-H460). Briefly: Inhibition of tumour cell proliferation in vitro ([3H]thymidine incorporation), NCI-H460. It counts as cell-based. To be noted: NCI-H460, 24 hours, read-out: The median inhibition concentration (IC50, nM) of NCI-H460. The method, then: (§1) The inhibition of tumour cell proliferation was studied using different types of human cancer cell lines. The cell lines under investigation were small cell lung carcinoma (NYH), non small cell lung carcinoma (NCI-H460), and breast cancer (MCF-7) using the following general procedure.
(§2) The cells were cultured in vitro for 24 hours in the presence of the compound under investigation. DNA synthesis was measured by incorporation of [3H]thymidine, and the median inhibitory concentrations (IC50) of the compounds were calculated.

Assay [2] concerns human breast cancer (MCF-7). Briefly: Inhibition of tumour cell proliferation in vitro ([3H]thymidine incorporation), MCF-7. In kind it is cell-based. The note with it: MCF7, MCF-7, 24 hours, read-out: The median inhibition concentration (IC50, nM) of MCF-7. The method, then: as §1, §2
Assay [3] has as its system human small cell lung carcinoma (NYH). Kind of assay: Inhibition of tumour cell proliferation in vitro ([3H]thymidine incorporation), NYH. In kind it is cell-based. The note with it: 24 hours, read-out: The median inhibition concentration (IC50, nM) of NYH. How it is done: as §1, §2
The test system of assay [4] is Yoshida sarcoma tumour-bearing rats. Kind of assay: Prolongation of survival time of tumour-bearing rats. In kind it is in vivo, LEW/Mol inbred female rats. How it is done:
The prolongation of survival time of tumour-bearing rats was studied in LEW/Mol inbred female rats inoculated with Yoshida sarcoma cells in a number of 2×10^7 cells. Tumour-bearing rats (6 animals per group) were dosed orally once daily from day 3 after the transfer of tumour cells and until death or for a maximum of 21 days or until the body weights had increased by 10% as a consequence of tumour proliferation. The mean survival day of treated versus non-treated rats is used to calculate ILS (Increased Life Span). ILS=((mean treated/mean control)-1)*100%.

Where [5] appears, read: 20 mg/kg p.o. once daily from day 3, ILS=((mean treated/mean control)-1)*100%.

Turning to `N#CNC(=Nc1ccncc1)NCCCCC#Cc1ccccc1` [Example 14, N-Cyano-N'-(6-phenylhex-5-ynyl)-N"-4-pyridylguanidine], the IC50 in assay [1] came to 78 nM; in assay [2], 74 nM; in assay [3], 6.1 nM.

Regarding `N#CNC(=Nc1ccncc1)NCCCCCCCCCc1ccccc1` [Example 5, N-Cyano-N'-(9-phenylnonyl)-N"-4-pyridylguanidine], the IC50 stood at 5.8 nM in assay [1], 29 nM in assay [2] and 5.3 nM in assay [3].

In the case of `N#CN=C(NCC/C=C/C=C/c1ccccc1)Nc1ccncc1` [Example 12, (E,E)-N-Cyano-N'-(6-phenylhex-3,5-dienyl)-N"-4-pyridylguanidine], the figures for the IC50 in assay [1], in assay [2] and in assay [3] were 49 nM, 138 nM and 5.5 nM, respectively.

With `N#CNC(=Nc1ccncc1)NCCCCCc1ccccc1` [Example 1, N-Cyano-N'-(5-phenylpentyl)N"-4-pyridylguanidine], in assay [4] (setting [5]), the “Increased life span (ILS) %” value is reported as 49%. In addition, in assay [2], the IC50 was 40 nM.

As for `N#CN=C(NCCCC/C=C\c1ccccc1)Nc1ccncc1` [Example 10, (Z)-N-Cyano-N'-(6-phenylhex-5-enyl)-N"-4-pyridylguanidine], the results for the IC50 in assay [1], in assay [2] and in assay [3] were 135 nM, 54 nM and 7.3 nM, respectively. Moreover, in assay [4] (setting [5]), the “Increased life span (ILS) %” value is 35%.

For the compound `N#CNC(=Nc1ccncc1)NCCCCCOc1ccccc1` [prior art B, N-Cyano-N'-(5-phenoxypentyl)-N"-4-pyridylguanidine, reference compound], the “Increased life span (ILS) %” value in assay [4] (50 mg/kg p.o. once daily from day 3, ILS=((mean treated/mean control)-1)*100%) turned out to be 35%.

In the case of `CCCCCCCCCCCCNC(=Nc1ccncc1)NC#N` [Example 18, N-Cyano-N'-dodecyl-N"-4-pyridylguanidine], the IC50 was 61 nM in assay [1], 19 nM in assay [2] and 5 nM in assay [3].
